Source: patent US9562031B1, “Phenethyldihydrobenzodioxolones and methods of use” (Sequoia Sciences, Inc., priority 2015, dated 2017)

Experiments:
Format in all cases: cell-based, human
Conditions in all cases: NCI 60-cell panel
NCI-H460 cells = experiment: NCI-60 panel antiproliferation, NCI-H460
Protocol: (§1) Bifidenone and Compound 37 were tested for antiproliferation activity against the NCI-60 panel of cancer cell lines. COMPARE analysis was then conducted to compare the activity “fingerprint” of bifidenone to those of known classes of compounds (Zhou, B.-N., Hoch, J. M., Johnson, R. K., Mattern, M. R., Eng, W.-K., Ma, J., Hecht, S. M., Newman, D. J., Kingston, D. G. I., 2000. Use of COMPARE Analysis to Discover New Natural Product Drugs: Isolation of Camptothecin and 9-Methoxycamptothecin from a New Source. Journal of Natural Products 63, 1273-1276.).

MDA-MB-435 cells = experiment: NCI-60 panel antiproliferation, MDA-MB-435
Protocol: as §1

SF-268 cells = experiment: NCI-60 panel antiproliferation, SF-268
Protocol: as §1

HOP-62 cells = experiment: NCI-60 panel antiproliferation, HOP-62
Protocol: as §1

HCT-116 cells = experiment: NCI-60 panel antiproliferation, HCT-116
Protocol: as §1

SK-OV-3 cells = experiment: NCI-60 panel antiproliferation, SK-OV-3
Protocol: as §1

SK-MEL-28 cells = experiment: NCI-60 panel antiproliferation, SK-MEL-28
Protocol: as §1

HCC-2998 cells = experiment: NCI-60 panel antiproliferation, HCC-2998
Protocol: as §1

UACC-62 cells = experiment: NCI-60 panel antiproliferation, UACC-62
Protocol: as §1

A498 cells = experiment: NCI-60 panel antiproliferation, A498
Protocol: as §1

A549 cells = experiment: NCI-60 panel antiproliferation, A549
Protocol: as §1

MOLT-4 cells = experiment: NCI-60 panel antiproliferation, MOLT-4
Protocol: as §1

NCI-H522 cells = experiment: NCI-60 panel antiproliferation, NCI-H522
Protocol: as §1

NCI-H322M cells = experiment: NCI-60 panel antiproliferation, NCI-H322M
Protocol: as §1

HL-60 cells = experiment: NCI-60 panel antiproliferation, HL-60
Protocol: as §1

LOX IMVI cells = experiment: NCI-60 panel antiproliferation, LOX IMVI
Protocol: as §1

SK-Mel-2 cells = experiment: NCI-60 panel antiproliferation, SK-MEL-2
Protocol: as §1

M14 cells = experiment: NCI-60 panel antiproliferation, M14
Protocol: as §1

EKVX cells = experiment: NCI-60 panel antiproliferation, EKVX
Protocol: as §1

SNB-75 cells = experiment: NCI-60 panel antiproliferation, SNB-75
Protocol: as §1

DU-145 cells = experiment: NCI-60 panel antiproliferation, DU-145
Protocol: as §1

SR cells = experiment: NCI-60 panel antiproliferation, SR
Protocol: as §1

OVCAR-5 cells = experiment: NCI-60 panel antiproliferation, OVCAR-5
Protocol: as §1

MDA-MB-468 cells = experiment: NCI-60 panel antiproliferation, MDA-MB-468
Protocol: as §1

HOP-92 cells = experiment: NCI-60 panel antiproliferation, HOP-92
Protocol: as §1

SF-539 cells = experiment: NCI-60 panel antiproliferation, SF-539
Protocol: as §1

Caki-1 cells = experiment: NCI-60 panel antiproliferation, Caki-1
Protocol: as §1

SK-Mel-5 cells = experiment: NCI-60 panel antiproliferation, SK-MEL-5
Protocol: as §1

786-0 cells = experiment: NCI-60 panel antiproliferation, 786-0
Protocol: as §1

OVCAR-3 cells = experiment: NCI-60 panel antiproliferation, OVCAR-3
Protocol: as §1

KM12 cells = experiment: NCI-60 panel antiproliferation, KM12
Protocol: as §1

SW-620 cells = experiment: NCI-60 panel antiproliferation, SW-620
Protocol: as §1

PC-3 cells = experiment: NCI-60 panel antiproliferation, PC-3
Protocol: as §1

K-562 cells = experiment: NCI-60 panel antiproliferation, K-562
Protocol: as §1

SN12C cells = experiment: NCI-60 panel antiproliferation, SN12C
Protocol: as §1

COLO205 cells = experiment: NCI-60 panel antiproliferation, COLO205
Protocol: as §1

BT-549 cells = experiment: NCI-60 panel antiproliferation, BT-549
Protocol: as §1

OVCAR-8 cells = experiment: NCI-60 panel antiproliferation, OVCAR-8
Protocol: as §1

SNB-19 cells = experiment: NCI-60 panel antiproliferation, SNB-19
Protocol: as §1

NCI-H226 cells = experiment: NCI-60 panel antiproliferation, NCI-H226
Protocol: as §1

T-47D cells = experiment: NCI-60 panel antiproliferation, T-47D
Protocol: as §1

RPMI-8226 cells = experiment: NCI-60 panel antiproliferation, RPMI-8226
Protocol: as §1

MALME-3M cells = experiment: NCI-60 panel antiproliferation, MALME-3M
Protocol: as §1

MDA-MB-231 cells = experiment: NCI-60 panel antiproliferation, MDA-MB-231
Protocol: as §1

UACC-257 cells = experiment: NCI-60 panel antiproliferation, UACC-257
Protocol: as §1

TK-10 cells = experiment: NCI-60 panel antiproliferation, TK-10
Protocol: as §1

MCF-7 cells = experiment: NCI-60 panel antiproliferation, MCF-7
Protocol: as §1

UO-31 cells = experiment: NCI-60 panel antiproliferation, UO-31
Protocol: as §1

CCRF-CEM cells = experiment: NCI-60 panel antiproliferation, CCRF-CEM
Protocol: as §1

IGR-OV1 cells = experiment: NCI-60 panel antiproliferation, IGR-OV1
Protocol: as §1

ACHN cells = experiment: NCI-60 panel antiproliferation, ACHN
Protocol: as §1

NCI-ADR/RES cells = experiment: NCI-60 panel antiproliferation, NCI-ADR/RES
Protocol: as §1

Hs578T cells = experiment: NCI-60 panel antiproliferation, Hs578T
Protocol: as §1

HT29 cells = experiment: NCI-60 panel antiproliferation, HT29
Protocol: as §1

HCT-15 cells = experiment: NCI-60 panel antiproliferation, HCT-15
Protocol: as §1

U251 cells = experiment: NCI-60 panel antiproliferation, U251
Protocol: as §1

SF-295 cells = experiment: NCI-60 panel antiproliferation, SF-295
Protocol: as §1

NCI-H23 cells = experiment: NCI-60 panel antiproliferation, NCI-H23
Protocol: as §1

RXF-393 cells = experiment: NCI-60 panel antiproliferation, RXF-393
Protocol: as §1

OVCAR-4 cells = experiment: NCI-60 panel antiproliferation, OVCAR-4
Protocol: as §1

C=CC[C@H]1C[C@]2([C@@H](C)Cc3ccc(OC)c(OC)c3)OCOC2=CC1=O [bifidenone, Bifidenone] gave an IC50 (NCI-H460 cells) of 320 nM, an IC50 (MDA-MB-435 cells) of 70 nM and an IC50 (SF-268 cells) of 220 nM. The IC50 (HOP-62 cells) was 320 nM, the IC50 (HCT-116 cells) was 490 nM and the IC50 (SK-OV-3 cells) was 270 nM. The IC50 (SK-MEL-28 cells) was 130 nM, the IC50 (HCC-2998 cells) was 1410 nM and the IC50 (UACC-62 cells) was 140 nM. The IC50 (A498 cells) was 460 nM, the IC50 (A549 cells) was 260 nM and the IC50 (MOLT-4 cells) was 170 nM. The IC50 (NCI-H522 cells) was 150 nM, the IC50 (NCI-H322M cells) was 460 nM and the IC50 (HL-60 cells) was 120 nM. The IC50 (LOX IMVI cells) was 390 nM, the IC50 (SK-Mel-2 cells) was 130 nM and the IC50 (M14 cells) was 200 nM. It also gave an IC50 (EKVX cells) of 280 nM, an IC50 (SNB-75 cells) of 270 nM and an IC50 (DU-145 cells) of 840 nM. The IC50 (SR cells) was 80 nM, the IC50 (OVCAR-5 cells) was 520 nM and the IC50 (MDA-MB-468 cells) was 300 nM. The IC50 (HOP-92 cells) was 240 nM, the IC50 (SF-539 cells) was 260 nM and the IC50 (Caki-1 cells) was 100 nM. It also gave an IC50 (SK-Mel-5 cells) of 250 nM, an IC50 (786-0 cells) of 320 nM and an IC50 (OVCAR-3 cells) of 170 nM. The IC50 (KM12 cells) was 320 nM, the IC50 (SW-620 cells) was 130 nM and the IC50 (PC-3 cells) was 190 nM. For the same molecule, the IC50 (K-562 cells) was 180 nM, the IC50 (SN12C cells) was 330 nM and the IC50 (COLO205 cells) was 400 nM. For the same molecule, the IC50 (BT-549 cells) was 180 nM, the IC50 (OVCAR-8 cells) was 470 nM and the IC50 (SNB-19 cells) was 300 nM. For the same molecule, the IC50 (NCI-H226 cells) was 810 nM, the IC50 (T-47D cells) was 250 nM and the IC50 (RPMI-8226 cells) was 250 nM. The IC50 (MALME-3M cells) was 90 nM, the IC50 (MDA-MB-231 cells) was 260 nM and the IC50 (UACC-257 cells) was 160 nM. The IC50 (TK-10 cells) was 330 nM, the IC50 (MCF-7 cells) was 170 nM and the IC50 (UO-31 cells) was 570 nM. The IC50 (CCRF-CEM cells) was 150 nM, the IC50 (IGR-OV1 cells) was 420 nM and the IC50 (ACHN cells) was 850 nM. The IC50 (NCI-ADR/RES cells) was 170 nM, the IC50 (Hs578T cells) was 210 nM and the IC50 (HT29 cells) was 310 nM. It also gave an IC50 (HCT-15 cells) of 230 nM, an IC50 (U251 cells) of 610 nM and an IC50 (SF-295 cells) of 410 nM. The IC50 (NCI-H23 cells) was 610 nM, the IC50 (RXF-393 cells) was 780 nM and the IC50 (OVCAR-4 cells) was 290 nM.
